Measurements from patent US4436733A, “4"- And 3-ester derivatives of DMT and DMOT” (Eli Lilly and Company, priority 1982, dated 1984).

Tests used:
Type in all cases: cell-based
[1] = test system: Haemophilus influenzae Holt; experiment: standard agar-dilution assay, MIC; details: ampicillin sensitive strain
Method: (§1) The MIC's in Table III were determined by standard agar-dilutionassays. The MIC's in Table IV were obtained using a conventional broth-dilution microtiter test.
^d Ampicillinsensitive strain

[2] = test system: Staphylococcus aureus X400; experiment: standard agar-dilution assay, MIC; details: Staphylococcus aureus X400, methicillin resistant strain
Method: as §1
^c Methicillinresistant-strain

Mycoplasma hyorhinis = experiment: conventional broth-dilution microtiter test, MIC
Method: as §1

Staphylococcus aureus = experiment: conventional broth-dilution microtiter test, MIC
Method: as §1

Streptococcus sp. 80 = experiment: conventional broth-dilution microtiter test, MIC
Method: as §1

Mycoplasma synoviae = experiment: conventional broth-dilution microtiter test, MIC
Method: as §1

[3] = test system: Pasteurella multocida 60A; experiment: conventional broth-dilution microtiter test, MIC; details: avian isolate
Method: as §1

Mycoplasma gallisepticum = experiment: conventional broth-dilution microtiter test, MIC
Method: as §1

[4] = test system: Pasteurella multocida 17E; experiment: conventional broth-dilution microtiter test, MIC; details: bovine isolate
Method: as §1

[5] = test system: Streptococcus pneumoniae Park I; experiment: standard agar-dilution assay, MIC
Method: as §1

Streptococcus Group 9960 = experiment: standard agar-dilution assay, MIC
Method: as §1

[6] = test system: Streptococcus pyogenes C203; experiment: standard agar-dilution assay, MIC
Method: as §1

[7] = test system: Staphylococcus epidermidis EPI2; experiment: standard agar-dilution assay, MIC
Method: as §1

[8] = test system: Streptococcus Group D X66; experiment: standard agar-dilution assay, MIC
Method: as §1

[9] = test system: Staphylococcus aureus X1.1; experiment: standard agar-dilution assay, MIC
Method: as §1

[10] = test system: Staphylococcus epidermidis EPI1; experiment: standard agar-dilution assay, MIC
Method: as §1

[11] = test system: Staphylococcus aureus S13E; experiment: standard agar-dilution assay, MIC
Method: as §1

[12] = test system: Staphylococcus aureus V41; experiment: standard agar-dilution assay, MIC; details: Staphylococcus aureus V41, penicillin resistant strain
Method: as §1
^b Penicillinresistant strain

[13] = test system: Haemophilus influenzae R252; experiment: standard agar-dilution assay, MIC; details: Haemophilus influenzae R252, ampicillin resistant strain
Method: as §1
^e Ampicillinresistant strain

Structure (SMILES)	MIC (minimal inhibitory concentration) [1]	MIC (minimal inhibitory concentration) [2]	MIC (minimal inhibitory concentration) (Mycoplasma hyorhinis)	MIC (minimal inhibitory concentration) (Staphylococcus aureus)	MIC (minimal inhibitory concentration) (Streptococcus sp. 80)	MIC (minimal inhibitory concentration) (Mycoplasma synoviae)	MIC (minimal inhibitory concentration) [3]	MIC (minimal inhibitory concentration) (Mycoplasma gallisepticum)	MIC (minimal inhibitory concentration) [4]	MIC (minimal inhibitory concentration) [5]	MIC (minimal inhibitory concentration) (Streptococcus Group 9960)	MIC (minimal inhibitory concentration) [6]	MIC (minimal inhibitory concentration) [7]	MIC (minimal inhibitory concentration) [8]	MIC (minimal inhibitory concentration) [9]	MIC (minimal inhibitory concentration) [10]	MIC (minimal inhibitory concentration) [11]	MIC (minimal inhibitory concentration) [12]	MIC (minimal inhibitory concentration) [13]
CCC1OC(=O)CC(O)C(C)C(OC2OC(C)C(OC3CC(C)(O)C(OC(=O)Cc4ccccc4)C(C)O3)C(N(C)C)C2O)C(CC=O)CC(C)C(=O)C=CC(C)=CC1COC(=O)Cc1ccccc1 (stereo not shown) [Compound 6, 23,4"-Di-O-Phenylacetyl-DMT]	64	1	0.195	1.56	0.39	0.39	> 50	≤ 0.048	50	0.125	0.5	0.25	1	0.5	1	1	1	1	64
CCC1OC(=O)CC(O)C(C)C(OC2OC(C)C(OC3CC(C)(O)C(OC(=O)C(Cl)(Cl)Cl)C(C)O3)C(N(C)C)C2OC(C)=O)C(CC=O)CC(C)C(=O)C=CC(C)=CC1COC(=O)C(Cl)(Cl)Cl (stereo not shown) [Compound 11, 2'-O-acetyl-23,4"-di-O-trichloroacetyl-DMT]	32	8	–	–	–	–	–	–	–	0.25	4	2	4	4	4	2	4	8	16
CCC1OC(=O)CC(OC(=O)C(Cl)(Cl)Cl)C(C)C(OC2OC(C)C(OC3CC(C)(O)C(O)C(C)O3)C(N(C)C)C2OC(C)=O)C(CC=O)CC(C)C(=O)C=CC(C)=CC1COC(=O)C(Cl)(Cl)Cl (stereo not shown) [Compound 12, 2'-O-acetyl-3,23-di-O-trichloroacetyl-DMT]	32	2	–	–	–	–	–	–	–	0.125	2	0.5	2	2	1	1	1	2	16
CCC1OC(=O)CC(OC(=O)C(Cl)(Cl)Cl)C(C)C(OC2OC(C)C(OC3CC(C)(O)C(OC(=O)C(Cl)(Cl)Cl)C(C)O3)C(N(C)C)C2OC(C)=O)C(CC=O)CC(C)C(=O)C=CC(C)=CC1COC(=O)C(Cl)(Cl)Cl (stereo not shown) [Compound 13, 2'-O-acetyl-3,23,4"-tri-O-trichloroacetyl-DMT]	128	16	–	–	–	–	–	–	–	2	16	8	16	16	8	8	8	16	128
